In general, IC50 refers to the point on the concentration scale where inhibition reaches its midpoint.

Structures are written as SMILES. Where only a bound is given, the exact number is not on record here.

Among the data in US7115658B2 (priority 2002, dated 2006) are IC50 values, retold here.

The target of the test is T1, Recombinant HCV polymerase (Hepatitis C virus genotype 1b, UniProt P26663).
T1 construct: 2.5 pmoles (0.15 μg) HCV polymerase protein
T1 sequence (P26663 2420-3010): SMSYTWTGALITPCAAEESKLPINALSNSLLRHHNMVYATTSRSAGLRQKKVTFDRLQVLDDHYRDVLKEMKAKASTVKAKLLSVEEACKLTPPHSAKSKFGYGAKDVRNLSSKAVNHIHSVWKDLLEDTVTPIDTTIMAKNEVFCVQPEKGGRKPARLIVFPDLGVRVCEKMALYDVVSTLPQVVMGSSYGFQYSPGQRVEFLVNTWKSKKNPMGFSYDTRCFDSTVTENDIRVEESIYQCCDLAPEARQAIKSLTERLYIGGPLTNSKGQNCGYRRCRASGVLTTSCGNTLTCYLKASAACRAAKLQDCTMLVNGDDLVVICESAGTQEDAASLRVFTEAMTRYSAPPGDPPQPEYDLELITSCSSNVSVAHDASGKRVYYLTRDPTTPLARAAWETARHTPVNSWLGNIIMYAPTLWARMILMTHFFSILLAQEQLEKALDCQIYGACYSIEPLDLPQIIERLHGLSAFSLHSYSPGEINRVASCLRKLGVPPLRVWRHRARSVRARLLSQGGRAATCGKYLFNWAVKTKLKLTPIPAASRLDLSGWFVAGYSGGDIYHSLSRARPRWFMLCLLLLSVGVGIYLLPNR
Briefly: HCV Polymerase Inhibition Assay. The class given is biochemical. Particulars: primer/template-directed transcription, 30 minutes at 30° C.; category symbol. The method in brief:
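Recombinant genotype 1b polymerase (2.5 pmol) extended biotin-dG12 on poly(rC)300 with 1 μM GTP plus α-32P-GTP, pH 7.2, 30 min at 30 °C, 1% DMSO final; DE-filter-bound product counted. IC50 fitted from triplicate cpm, refitted with enzyme-concentration (30 nM) tight-binding equation when below 200 nM.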
Regarding `COc1cc(OC)c(CCC2(C3CCCC3)CC(O)=C(Sc3nnc(O)n3C)C(=O)O2)cc1Cl` (stereo not shown) [Example 95, 6-[2(5-chloro-2,4-dimethoxyphenyl)ethyl]-6-cyclopentyl-4-hydroxy-3-[(5-hydroxy-4-methyl-4H-1,2,4-triazol-3-yl)thio]-5,6-dihydro-2H-pyran-2-one], the IC50 is less than 1 µM.
To `COc1cc(OC)c(CCC2(C3CCCC3)CC(O)=C(Sc3nnc(-c4cccs4)n3C)C(=O)O2)cc1Cl` (stereo not shown) [Example 96, 6-[2-(5-chloro-2,4-dimethoxyphenyl)ethyl]-6-cyclopentyl-4-hydroxy-3-[(4-methyl-5-thien-2-yl 4H-1,2,4-triazol-3-yl)thio]-5,6-dihydro-2-one] belongs less than 1 µM; to `COc1cc(OC)c(CCC2(C3CCCC3)CC(O)=C(Sc3nc(N)c4cn[nH]c4n3)C(=O)O2)cc1Cl` (stereo not shown) [Example 97, 3-[(4-amino-1H-pyrazolo[3,4-d]pyrimidin-6-yl)thio]-6-[2-(5-chloro-2,4-dimethoxyphenyl)ethyl]-6-cyclopentyl-4-hydroxy-5,6-dihydro-2H-pyran-2-one], less than 1 µM.
Regarding `COc1cc(OC)c(CCC2(C3CCCC3)CC(O)=C(Sc3ncc(CO)n3C)C(=O)O2)cc1Cl` (stereo not shown) [Example 98, 6-[2-(5-chloro-2,4-dimethoxyphenyl)ethyl]-6-cyclopentyl-4-hydroxy-3-([5-(hydroxymethyl)-1-methyl-1H-imidazol-2-yl]thio)-5,6-dihydro-2H-pyran-2-one], the 50% inhibitory concentration (IC50) was less than 1 µM.
As for `COc1cc(OC)c(CCC2(C3CCCC3)CC(O)=C(Sc3nc4ccc(C(=O)O)cc4[nH]3)C(=O)O2)cc1Cl` (stereo not shown) [Example 99, 2-({6-[2-(5-chloro-2,4-dimethoxyphenyl)ethyl]-6-cyclopentyl-4-hydroxy-2-oxo-5,6-dihydro-2H-pyran-3-yl}thio)-1H-benzimidazole-5-carboxylic acid], the figure is less than 1 µM.
For `CCOC(=O)c1cnc(SC2=C(O)CC(CCc3cc(Cl)c(OC)cc3OC)(C3CCCC3)OC2=O)[nH]1` (stereo not shown) [Example 100, Ethyl 2-({6-[2-(5-chloro-2,4-dimethoxyphenyl)ethyl]-6-cyclopentyl-4-hydroxy-2-oxo-5,6-dihydro-2H-pyran-3-yl}thio)-1H-imidazol-4-carboxylate], the IC50 is less than 1 µM.
For the compound `COc1ccc(CCC2(C3CCCC3)CC(O)=C(Sc3nc4nc(C)cc(C)n4n3)C(=O)O2)cc1Cl` (stereo not shown) [Example 101, 6-[2-(3-Chloro-4-methoxy-phenyl)-ethyl]-6-cyclopentyl-3-(5,7-dimethyl-[1,2,4]triazolo[1,5-a]pyrimidin-2-ylsulfanyl)-4-hydroxy-5,6-dihydro-pyran-2-one], the IC50 was less than 1 µM.
To `COc1ccc(CCC2(C3CCCC3)CC(O)=C(Sc3ccccc3)C(=O)O2)cc1Cl` (stereo not shown) [Example 102, 6-[2-(3-Chloro-4-methoxy-phenyl)-ethyl]-6-cyclopentyl-4-hydroxy-3-phenylsulfanyl-5,6-dihydro-pyran-2-one] belongs less than 1 µM; to `COc1ccc(CCC2(C3CCCC3)CC3=C(CCCO3)C(=O)O2)c(OC)c1` (stereo not shown) [Example 103, 7-Cyclopentyl-7-[2-(2,4-dimethoxyphenyl)ethyl]-3,4,7,8-tetrahydro-2H,5H-pyrano[4,3-b]pyran-5-one], greater than 50 µM.
Turning to `C=CCOCCC1(C2CCCC2)CC(O)=C(Sc2nc3nc(C)cc(C)n3n2)C(=O)O1` (stereo not shown) [Example 104, 6-(2-Allyloxy-ethyl)-6-cyclopentyl-3-(5,7-dimethyl-[1,2,4]triazolo[1,5-a]pyrimidin-2-ylsulfanyl)-4-hydroxy-5,6-dihydro-pyran-2-one], the concentration for half-maximal inhibition (IC50) fell in the range of 10 to 50 µM.
As for `COc1cc(OC)c(CCC2(C3CCCC3)CC(O)=C(Sc3nc(O)c4cc[nH]c4n3)C(=O)O2)cc1Cl` (stereo not shown) [Example 105, 6-[2-(5-Chloro-2,4-dimethoxyphenyl)ethyl]-6-cyclopentyl-4-hydroxy-3-[(4-hydroxy-7H-pyrrolo[2,3-d]pyrimidin-2-yl)thio]-5,6-dihydro-2H-pyran-2-one], the IC50 was less than 1 µM.
As for `CCn1nnnc1SC1=C(O)CC(CCc2cc(Cl)c(OC)cc2OC)(C2CCCC2)OC1=O` (stereo not shown) [Example 106, 6-[2-(5-Chloro-2,4-dimethoxyphenyl)ethyl]-6-cyclopentyl-3-[(1-ethyl-1H-tetraazol-5-yl)thio]-4-hydroxy-5,6-dihydro-2H-pyran-2-one], the figure is less than 1 µM; as for `COc1cc(OC)c(CCC2(C3CCCC3)CC(O)=C(Sc3nnnn3CCN(C)C)C(=O)O2)cc1Cl` (stereo not shown) [Example 107, 6-[2-(5-Chloro-2,4-dimethoxyphenyl)ethyl]-6-cyclopentyl-3-({1-[2-(dimethylamino)ethyl]-1H-tetraazol-5-yl}thio)-4-hydroxy-5,6-dihydro-2H-pyran-2-one], less than 1 µM.
Turning to `COc1cc(OC)c(CCC2(C3CCCC3)CC(O)=C(Sc3cnccn3)C(=O)O2)cc1Cl` (stereo not shown) [Example 108, 6-[2-(5-Chloro-2,4-dimethoxyphenyl)ethyl]-6-cyclopentyl-4-hydroxy-3-(pyrazin-2-ylthio)-5,6-dihydro-2H-pyran-2-one], the IC50 is less than 1 µM.
To `COc1cc(OC)c(CCC2(C3CCCC3)CC(O)=C(Sc3nccs3)C(=O)O2)cc1Cl` (stereo not shown) [Example 109, 6-[2-(5-Chloro-2,4-dimethoxyphenyl)ethyl]-6-cyclopentyl-4-hydroxy-3-(1,3-thiazol-2-ylthio)-5,6-dihydro-2H-pyran-2-one] belongs less than 1 µM.
To `COc1cc(OC)c(CCC2(C3CCCC3)CC(O)=C(SC3=NCCCN3)C(=O)O2)cc1Cl` (stereo not shown) [Example 110, 6-[2-(5-Chloro-2,4-dimethoxyphenyl)ethyl]-6-cyclopentyl-4-hydroxy-3-(1,4,5,6-tetrahydropyrimidin-2-ylthio)-5,6-dihydro-2H-pyran-2-one] belongs less than 1 µM; to `COc1ccc(CCC2(C3CCCC3)CC(O)=C(Sc3n[nH]c(-c4ccncc4)n3)C(=O)O2)cc1` (stereo not shown) [Example 111, 6-Cyclopentyl-4-hydroxy-6-[2-(4-methoxyphenyl)ethyl]-3-[(5-pyridin-4-yl-1H-1,2,4-triazol-3-yl)thio]-5,6-dihydro-2H-pyran-2-one], less than 1 µM.
For the compound `COc1ccc(CCC2(C3CCCC3)CC(O)=C(Sc3nc(C)c(CC(=O)O)s3)C(=O)O2)cc1` (stereo not shown) [Example 112, [2-({6-Cyclopentyl-4-hydroxy-6-[2-(4-methoxyphenyl)ethyl]-2-oxo-5,6-dihydro-2H-pyran-3-yl}thio)-4-methyl-1,3-thiazol-5-yl]acetic acid], the half-maximal inhibitory concentration (IC50) is less than 1 µM.
As to `COc1ccc(CCC2(C3CCCC3)CC(O)=C(Sc3nc(O)c4cc[nH]c4n3)C(=O)O2)cc1` (stereo not shown) [Example 113, 6-Cyclopentyl-4-hydroxy-3-[(4-hydroxy-7H-pyrrolo[2,3-d]pyrimidin-2-yl)thio]-6-[2-(4-methoxyphenyl)ethyl]-5,6-dihydro-2H-pyran-2-one], the half-maximal inhibitory concentration (IC50) is less than 1 µM.
As for `COc1ccc(CCC2(C3CCCC3)CC(O)=C(Sc3nnnn3-c3ccc(O)cc3)C(=O)O2)cc1` (stereo not shown) [Example 114, 6-Cyclopentyl-4-hydroxy-3-([1-(4-hydroxyphenyl)-1H-tetraazol-5-yl]thio)-6-[2-(4-methoxyphenyl)ethyl]-5,6-dihydro-2H-pyran-2-one], the figure is less than 1 µM; as for `COc1ccc(CCC2(C3CCCC3)CC(O)=C(Sc3nc(N)n[nH]3)C(=O)O2)cc1` (stereo not shown) [Example 115, 3-[(3-Amino-1H-1,2,4-triazol-5-yl)thio]-6-cyclopentyl-4-hydroxy-6-[2-(4-methoxyphenyl)ethyl]-5,6-dihydro-2H-pyran-2-one], 1 to 10 µM; as for `COc1ccc(CCC2(C3CCCC3)CC(O)=C(Sc3nnnn3CCN(C)C)C(=O)O2)cc1` (stereo not shown) [Example 116, 6-Cyclopentyl-3-({1-[2-(dimethylamino)ethyl]-1H-tetraazol-5-yl}thio)-4-hydroxy-6-[2-(4-methoxyphenyl)ethyl]-5,6-dihydro-2H-pyran-2-one], 1 to 10 µM.
In the case of `COc1ccc(CCC2(C3CCCC3)CC(O)=C(Sc3nnc(O)n3C)C(=O)O2)cc1` (stereo not shown) [Example 117, 6-Cyclopentyl-4-hydroxy-3-[(5-hydroxy-4-methyl-4H-1,2,4-triazol-3-yl)thio]-6-[2-(4-methoxyphenyl)ethyl]-5,6-dihydro-2H-pyran-2-one], the IC50 lay in the range of 1 to 10 µM.
On to `COc1ccc(CCC2(C3CCCC3)CC(O)=C(Sc3nc4nc[nH]c4c(=O)[nH]3)C(=O)O2)cc1` (stereo not shown) [Example 118, 2-((6-Cyclopentyl-4-hydroxy-6-[2-(4-methoxyphenyl)ethyl]-2-oxo-5,6-dihydro-2H-pyran-3-yl}thio)-1,7-dihydro-6H-purin-6-one], for which the half-inhibitory concentration (IC50) was less than 1 µM.
To `CCOC(=O)c1c[nH]c(SC2=C(O)CC(CCc3ccc(OC)cc3)(C3CCCC3)OC2=O)n1` (stereo not shown) [Example 119, Ethyl 2-({6-cyclopentyl-4-hydroxy-6-[2-(4-methoxyphenyl)ethyl]-2-oxo-5,6-dihydro-2H-pyran-3-yl}thio)-1H-imidazole-4-carboxylate] belongs 1 to 10 µM.
Consider `COc1ccc(CCC2(C3CCCC3)CC(O)=C(Sc3nc(N)c4cn[nH]c4n3)C(=O)O2)cc1` (stereo not shown) [Example 120, 3-[(4-Amino-1H-pyrazolo[3,4-d]pyrimidin-6-yl)thio]-6-cyclopentyl-4-hydroxy-6-[2-(4-methoxyphenyl)ethyl]-5,6-dihydro-2H-pyran-2-one], for which the IC50 was less than 1 µM.
As for `CCn1nnnc1SC1=C(O)CC(CCc2ccc(OC)cc2)(C2CCCC2)OC1=O` (stereo not shown) [Example 121, 6-Cyclopentyl-3-[(1-ethyl-1H-tetraazol-5-yl)thio]-4-hydroxy-6-[2-(4-methoxyphenyl)ethyl]-5,6-dihydro-2H-pyran-2-one], the figure is less than 1 µM; as for `Cc1cc(C)n2nc(SC3=C(O)CC(CCc4ccc(OCc5ccccc5)cc4)(C4CCCC4)OC3=O)nc2n1` (stereo not shown) [Example 122, 6-{2-[4-(Benzyloxy)phenyl]ethyl}-6-cyclopentyl-3-[(5,7-dimethyl[1,2,4]triazolo[1,5-a]pyrimidin-2-yl)thio]-4-hydroxy-5,6-dihydro-2H-pyran-2-one], less than 1 µM.
